Read-outs that look alike come from different tables or passages of the source.
Columns and labels:
[1] = system: CD4^+ T cells and CD25^+CD4^+ T cells; test: Direct FACS analysis of spleen cells following Vb therapy on day 14 post infection; assay type: in vivo, mice; conditions: spleens collected 48 hours post Vb treatment
Method: FACS analysis of CD4^+ and CD8^+ T cells prepared from spleens of mice treated with Vb on Day 14 pi was performed (Figure 6). CD25^+CD4^+ T cells were also examined as they have recently been identified as having an important regulatory function in mouse models of autoimmune disease and tumour immunology (Takahashi et al., 1998; Shimizu et al., 1999). It is possible that these cells may play a role in the regulation of the immune response to MAIDS. Day 14 pi and uninfected control mice were given Vb therapy and the spleens collected at 48 hours post Vb treatment.

MAIDS virus [2] = test: Rechallenge with MAIDS virus following protective vinblastine therapy; assay type: in vivo, mice; conditions: Vb at day 14 pi, rechallenged at 3 or 8 weeks post Vb treatment; assessed at 20 weeks
Source text: To determine if mice protected from MAIDS by the day 14 pi Vb treatment develop an immune response which would then protect them from a subsequent rechallenge with the MAIDS virus groups of mice, given the Vb therapy at day 14 pi, were rechallenged with the MAIDS virus at 3 or 8 weeks post Vb treatment. […] This is not an unexpected result as the dominant immunosuppression by the regulator population of cells would have been restored as a consequence of the immune effector response to the second (untreated) infection.

MAIDS virus [3] = test: Spleen cell transfer into Vb-treated MAIDS infected mice; assay type: in vivo
Source text: The experiments illustrated in Figure 7 were designed to determine if a single dose of Vb, administered at 14 days pi, is eliminating a population of expanding CD4^+ regulator T cells and thereby releasing effector cells from down-regulation and clearing the host of the MAIDS virus.
Mice were infected with MAIDS, received day 14 pi Vb treatment and then received an adoptive transfer of ∼10^7 spleen cells from donor mice prepared as outlined in Figure 7. For each experiment [designated (I), (II) and (III)] groups consisted of 7 recipient mice and 9 donor mice. Mice in Group I received whole spleens from infected mice that had not received any Vb treatment. Mice in Group II received whole spleen cell preparations, from infected mice, that had been depleted of CD4^+ cells using a FACS cell sorter after staining with fluorochrome-labeled anti-CD4 monoclonal antibody. […] Mice in Group III received whole spleens from infected donor mice that also received Vb treatment on day 14 pi.

[4] = system: LP-BM5 murine leukemia virus (MuLV); test: MAIDS development after a single dose of vinblastine at different times post infection (spleen weight, histology, FACS analysis); assay type: in vivo, C57BL/6 mice
Source text: A murine AIDS (MAIDS) pathology induced by LP-BM5 murine leukemia virus (MuLV) in susceptible mice is an effective tool to investigate mechanisms of retrovirus-induced immunodeficiency. […] Infection of a susceptible strain such as C57BL/6 mice with LP-BM5 leads to chronic splenomegaly, hypergammaglobulinaemia and development of immunodeficiency in both T and B cells. In vitro, there is a progressive impairment in the responsiveness of T-cells and B-cells to mitogenic or specific antigenic stimuli. In vivo, infected mice become increasingly susceptible to challenge with a variety of opportunistic organisms and can develop B-cell lymphoma. Deaths are first observed at 8-10 weeks post-infection (pi), and all mice die within 24 weeks (Figure 1). These alterations in immune function reflect complex changes in the phenotype and function of all components of the immune network.
The treatment with a single dose of the anti-mitotic agent vinblastine (Vb) at different times pi is able to prevent the development/progression of MAIDS. […] Clearly, the Vb treatment is remarkably therapeutic when administered at 6 hr or 14 days pi with 100% (10/10) and 74% (20/27) of mice, respectively, showing no signs of MAIDS development at 10 weeks pi (as determined by spleen weight, histology and FACS analysis). […] Additional experiments have provided results of 100% of mice having no signs of MAIDS development at least 12 months after Vb treatment 14 days pi (data not shown). Although not as pronounced as the protection seen after day 14 treatment, moderate protection from MAIDS development was still observed. […] The total protection from MAIDS development seen in mice given Vb at 6 hrs pi is not unexpected as the virus replicates in actively replicating cells which are the target of the anti-mitotic drug thus any cells infected with the virus are killed by the Vb preventing the virus from rapidly establishing an infection in the host. However, the highly protective effect observed after a single treatment with Vb at 14 days pi is quite remarkable as, by this stage, the viral infection is well established and the early disease processes are well underway. We propose that this highly therapeutic effect is due to the Vb targeting a particular subset of immune regulator cells during their expansion phase and thereby altering the immune response to the viral infection. […] This leads to long term disease free survival for many months post-infection and treatment.
Spleens from the Day 14 pi Vb treated mice as well as infected and uninfected control mice were weighed and examined histologically. The splenic architecture of all MAIDS infected mice was profoundly disorganised as previously reported (Hartley et al., 1989).

MAIDS virus [5] = test: Adoptive transfer of CD4+CD25+/- cells into MAIDS infected day 14 Vinblastine treated mice; assay type: in vivo; conditions: MAIDS-infected day 14 Vb-treated recipients given CD4+CD25+ or CD4+CD25- cells from uninfected donors
Source text: An adoptive transfer experiment was designed to directly test the hypothesis that CD4+CD25+ T cells are functioning as the regulator cells in the murine AIDS model. The same approach used to determine that the regulator cells are CD4+ T cells was used to test whether the CD4+CD25+ subset are the target of day 14 Vinblastine treatment. […] 2.0x10^6 cells of the regulator CD4+CD25+ phenotype were purified from single cell suspensions of donor spleens using MACS beads (Miltenyi Biotec) using two positive selection steps. The cells were then tested for purity by flow cytometry (both CD4+CD25+ and CD4+CD25- fractions were of > 90 % purity) and viability using trypan blue exclusion prior to transfer into uninfected (control) and MAIDS infected day 14 Vinblastine treated mice. CD4+CD25- cells were also transferred to allow that the regulator cells may not present in the CD25+ fraction and also to allow for the possibility that these putative regulator cells may lose CD25 expression as they expand and become activated as was reported by Gavin et al., 2002.
Mice receiving adoptive transfer of cells were either uninfected (control) or MAIDS infected and day 14 Vinblastine treated to examine whether the transfer of cells would result in disease progression. […] Disease progression was assessed by spleen weight at 10 weeks post MAIDS infection. […]

murine T cell lymphoma = conditions: cited from earlier work

Structure (SMILES): CC[C@]1(O)C[C@@H]2CN(CCc3c([nH]c4ccccc34)[C@@](C(=O)OC)(c3cc4c(cc3OC)N(C)[C@H]3[C@@](O)(C(=O)OC)[C@H](OC(C)=O)[C@]5(CC)C=CCN6CC[C@]43[C@@H]65)C2)C1 [Vb, vinblastine]
- effect on spleen cell subsets ([1]; Vb at day 14 pi and in uninfected controls): all cell subsets are reduced
- cell subsets preferentially targeted in MAIDS infected mice (uninfected to infected ratios) ([1]; Vb at day 14 pi): CD4^+ T cells and CD25^+CD4^+ T cells that are preferentially targeted
- protection from viral rechallenge (MAIDS virus [2]): not protected from viral rechallenge
- protective effect of Vb against MAIDS development after spleen cell transfer (MAIDS virus [3]; Group I: day 14 pi Vb, then ~10^7 whole spleen cells from MAIDS infected donors without Vb): completely prevented Vb from protecting mice from MAIDS development
- protective effect of Vb against MAIDS development after spleen cell transfer (MAIDS virus [3]; Group II: donor spleen cells depleted of CD4^+ cells by FACS sorting before transfer): the protective effect of Vb was not overcome
- protective effect of Vb against MAIDS development after spleen cell transfer (MAIDS virus [3]; Group III: spleen cells from MAIDS infected donors also given day 14 Vb): fully protected from MAIDS development
- mice protected from any splenomegaly at 20 weeks pi ([4]; Vb at day 14 pi, 4/5 mice): 80%
- mice having no signs of MAIDS development at least 12 months after Vb treatment ([4]; Vb treatment 14 days pi, additional experiments, data not shown): 100%
- cellular proportions (CD4^+, CD8^+ and B cells) and distributions of spleen cells by FACS analysis ([4]; day 14 pi Vb treated mice at 10 weeks pi, preliminary, data not shown): like those observed in normal uninfected mice
- splenic architecture (spleen histology) ([4]; day 14 pi Vb treated mice with normal spleen weights (below 0.25g), 10 weeks pi): indistinguishable from that of uninfected control mice
- mice showing no signs of MAIDS development at 10 weeks pi ([4]; single 6mg/kg i.p. dose given at 6 hr pi, 10/10 mice, by spleen weight, histology and FACS analysis): 100%
- mice with protective effect (no signs of MAIDS development at 10 weeks pi) ([4]; single 6mg/kg i.p. dose given at 6 days pi, 6/13 mice): 46%
- mice showing no signs of MAIDS development at 10 weeks pi ([4]; single 6mg/kg i.p. dose given at 14 days pi, 20/27 mice): 74%
- protection against MAIDS development ([4]; single 6mg/kg i.p. dose given at day 2 pi): no protection against MAIDS development
- protection against MAIDS development ([4]; single 6mg/kg i.p. dose given at day 7 pi): no protection against MAIDS development
- disease progression (spleen weight at 10 weeks post MAIDS infection) after adoptive cell transfer (MAIDS virus [5]): disease progression was readily apparent
- effect on tumour (murine T cell lymphoma; single dose at day 10 following tumour inoculation): enhancement
- effect on tumour (murine T cell lymphoma; single dose at days 4, 6, 13 and 15 following tumour inoculation): regression

Reference: patent EP1482971B1, “STRATEGY FOR RETROVIRAL IMMUNOTHERAPY” (priority 2002, dated 2003)
